# In ChEMBL document CHEMBL3774338 (J Med Chem, 2016):
# Assay: Chemical stability assessed as oxidation mediated drug degradation at room temperature exposed to air by mass spectrometric analysis
# Assay type: physicochemical
structure (smiles),measurement,value
O=c1[nH]cnc2c(-n3cc(CCN4CCC(c5cc(F)cc(F)c5)CC4)cn3)nccc12,Stability,Unstable
